Data as given in US11351178B2, “Selective HDAC6 inhibitors” (ITALFARMACO S.P.A., priority 2017, dated 2022).
Read-outs that look alike come from different tables or passages of the source.

Assays:
recombinant human HDAC6 = biological target: T1, recombinant human HDAC6 (Homo sapiens, UniProt Q9UBN7); experiment: Enzymatic screening on recombinant human HDAC6; type: biochemical; details: Table 2
T1 sequence (Q9UBN7 1-1215): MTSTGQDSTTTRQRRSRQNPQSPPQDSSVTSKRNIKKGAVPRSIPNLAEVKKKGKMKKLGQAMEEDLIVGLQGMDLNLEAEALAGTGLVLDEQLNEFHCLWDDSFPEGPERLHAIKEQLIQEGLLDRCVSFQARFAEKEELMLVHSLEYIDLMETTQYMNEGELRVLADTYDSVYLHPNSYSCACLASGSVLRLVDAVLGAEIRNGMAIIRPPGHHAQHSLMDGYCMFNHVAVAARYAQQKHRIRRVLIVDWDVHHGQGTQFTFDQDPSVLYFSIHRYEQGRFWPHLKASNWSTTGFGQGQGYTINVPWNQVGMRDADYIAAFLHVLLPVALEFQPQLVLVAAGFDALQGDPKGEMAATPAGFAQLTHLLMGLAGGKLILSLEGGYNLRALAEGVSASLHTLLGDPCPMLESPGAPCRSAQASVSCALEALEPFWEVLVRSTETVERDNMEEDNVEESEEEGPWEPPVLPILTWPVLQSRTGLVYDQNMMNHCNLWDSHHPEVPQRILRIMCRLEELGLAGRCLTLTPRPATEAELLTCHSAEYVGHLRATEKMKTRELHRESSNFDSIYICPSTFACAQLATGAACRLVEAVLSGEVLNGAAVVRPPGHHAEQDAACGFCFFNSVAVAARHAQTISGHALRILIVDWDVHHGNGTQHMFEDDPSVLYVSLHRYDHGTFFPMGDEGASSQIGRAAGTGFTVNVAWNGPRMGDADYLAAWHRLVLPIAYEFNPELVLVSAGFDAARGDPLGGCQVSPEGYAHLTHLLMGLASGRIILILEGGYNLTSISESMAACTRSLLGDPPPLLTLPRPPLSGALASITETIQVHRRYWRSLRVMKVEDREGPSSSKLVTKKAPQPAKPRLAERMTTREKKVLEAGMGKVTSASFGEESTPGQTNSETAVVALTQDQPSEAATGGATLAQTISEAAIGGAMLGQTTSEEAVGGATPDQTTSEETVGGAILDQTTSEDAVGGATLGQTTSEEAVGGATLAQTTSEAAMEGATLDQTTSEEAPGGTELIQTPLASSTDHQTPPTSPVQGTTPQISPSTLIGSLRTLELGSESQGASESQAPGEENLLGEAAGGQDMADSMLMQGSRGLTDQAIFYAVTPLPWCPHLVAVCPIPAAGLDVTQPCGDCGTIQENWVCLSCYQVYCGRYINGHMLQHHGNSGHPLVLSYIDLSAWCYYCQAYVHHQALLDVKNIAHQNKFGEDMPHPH
Method in brief: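 Buffer for substrate addition: 25 mM Tris-HCl pH 8, 130 mM NaCl, 0.05% Tween-20, 10% glycerol, substrate 2× concentrated (FdL, FdL-Green or trifluoroacetyl-lysine). Recombinant human HDAC was preincubated with compound at 30 °C beforehand, timing isoform-dependent, and the reaction was likewise run at 30 °C.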

[1] = tested on: B 697 promyelocytic cell line; experiment: Cytotoxicity on 697 cell line (CellTiter 96); type: cell-based; details: 72 hours incubation, read-out: 697 TOXICITY
Method in brief: (§1)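 Cells seeded (2×10^4/well for 697, 5×10^5/well for PBMCs); compounds added after 24 h at 1–10000 nM (697) or 1.5–10000 nM (PBMCs) and incubated 72 h. Viability read by CellTiter 96 Aqueous One tetrazolium assay of mitochondrial function.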

[2] = tested on: peripheral blood mononuclear cells (PBMCs); experiment: Cytotoxicity on PBMCs (CellTiter 96); type: cell-based; details: PBMC, 72 h; read-out: PBMC TOXICITY (72 h)
Method in brief: as §1

[3] = Stability to Phase I metabolism in rat S9 liver fraction; type: in vitro ADME; details: after 90 min, 37° C.
Method in brief: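 Compounds were incubated with rat or human liver S9 fraction at 37 °C for up to 90 min. Reactions were quenched on ice with acidified acetonitrile and analysed by HPLC-UV or LC-MS/MS. Percent remaining versus time zero and intrinsic clearance were calculated.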

[4] = Stability to Phase I metabolism in human S9 liver fraction; type: in vitro ADME
Protocol: Test compounds were incubated in rat and human liver S9 fraction at 37° C. up to 90 minutes in order to evaluate their stability to Phase I metabolism by hepatic enzymes. […] The reaction was stopped placing samples on ice bath and adding acidified acetonitrile. After centrifugation (10 minutes at 14000 rpm) an aliquot of the supernatant was diluted water, filtered with 0.45 μm regenerated cellulose syringe filters and injected in HPLC-UV or in LC-MS/MS. The percentages of the amount remaining at the various incubation times with respect to the initial amount were calculated. The intrinsic clearance was also calculated.

Stability in rat plasma = type: in vitro ADME; details: after 4 hours, 37° C.
Method in brief: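 Compounds incubated at 37° C in rat or human plasma at 50 μM (UV/HPLC) or 1 or 2 μM (LC-MS/MS) for 0–4 h. Reaction stopped with acidified acetonitrile on ice; percent remaining versus initial amount and plasma half-life calculated.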

[5] = Stability in human plasma; type: in vitro ADME; details: after 4 hours, 37° C.
Protocol: In order to evaluate the stability to circulating enzymes, test compounds were incubated in human and rat plasma at 37° C. in a thermostated oscillating bath. Each test compound was incubated at μM (50 μM when the samples were analysed by UV/HPLC, 1 or 2 μM when the samples were analysed by LC-MS/MS) concentration for 0, 15, 30 min and 1, 2 and 4 hours. The reaction was stopped placing tubes on ice bath and adding acidified acetonitrile. After centrifugation for 10 minutes at 14000 rpm, an aliquot of the supernatant was diluted with water, filtered with 0.45 μm syringe filters and injected in HPLC-UV or in LC-MS/MS. The percentages of amount remaining at the various times of incubation with respect to initial amount were calculated. The half-life in plasma was also calculated.

Q: Which results are given for `CN(C)S(=O)(=O)c1cccc(-c2nnc(Cc3ccc(C(=O)NO)cc3)o2)c1` [comp. 3, 4-((5-(3-(N,N-dimethylsulfamoyl)phenyl)-1,3,4-oxadiazol-2-yl)methyl)-N-hydroxybenzamide]?
A: IC50 (recombinant human HDAC6; read-out: HDAC6 IC50): 11 nM; IC50 [1]: 2880 nM; IC50 [2]: 735 nM; residual percentage in rat S9 fraction [3]: 66%; residual percentage in human S9 fraction ([4]; human, 90 min, pH 7.4): 93%; residual percentage in rat plasma (Stability in rat plasma): 79%; residual percentage in human plasma [5]: 100%

Q: With `Cn1c(Sc2c(F)cc(C(=O)NO)cc2F)nnc1-c1ccccn1` [comp. 14, 3,5-difluoro-N-hydroxy-4-((4-methyl-5-(pyridin-2-yl)-4H-1,2,4-triazol-3-yl)thio)benzamide] as the compound, how does the IC50 (recombinant human HDAC6; read-out: HDAC6 IC50) read?
A: The IC50 was 8 nM.

Q: And the IC50 [1]?
A: The IC50 was 3940 nM.

Q: What about the IC50 [2] of the same compound?
A: The IC50 was over 10000 nM.

Q: What about the “residual percentage in rat S9 fraction” value [3] of the same compound?
A: The value was 88%.

Q: And the “residual percentage in human S9 fraction” value ([4]; human, 90 min, pH 7.4)?
A: The value was 87%.

Q: What about the “residual percentage in rat plasma” value (Stability in rat plasma) of the same compound?
A: The value was 38%.

Q: And the “residual percentage in human plasma” value [5]?
A: Its value is 77%.

Q: For `O=C(NO)c1ccc(Cn2nnnc2-c2ccccn2)cc1` [comp. 20, N-hydroxy-4-((5-(pyridin-2-yl)-1H-tetrazol-1-yl)methyl)benzamide], which IC50 (recombinant human HDAC6; read-out: HDAC6 IC50) is on record?
A: The IC50 was 4 nM.

Q: What about the IC50 [1] of the same compound?
A: Its IC50 is 1120 nM.

Q: What about the IC50 [2] of the same compound?
A: The IC50 was 2000 nM.

Q: And the “residual percentage in rat S9 fraction” value [3]?
A: The value was 88%.

Q: And the “residual percentage in human S9 fraction” value ([4]; human, 90 min, pH 7.4)?
A: The value was 101.7%.

Q: And the “residual percentage in rat plasma” value (Stability in rat plasma)?
A: Its value is 98.5%.

Q: And the “residual percentage in human plasma” value [5]?
A: The value was 94.3%.

Q: With `Cc1cc(-c2nnc(Sc3c(F)cc(C(=O)NO)cc3F)n2C)nn1C` [comp. 100, 4-[[5-(1,5-dimethylpyrazol-3-yl)-4-methyl-1,2,4-triazol-3-yl]sulfanyl]-3,5-difluoro-benzenecarbohydroxamic acid] as the compound, how does the IC50 (recombinant human HDAC6; HDAC6 IC50 (nM)) read?
A: Its IC50 is 7 nM.

Q: What about the IC50 [1] of the same compound?
A: Its IC50 is 7090 nM.

Q: And the IC50 [2]?
A: Its IC50 is 10000 nM.

Q: And the “residual percentage in rat S9 fraction” value [3]?
A: The value was 30%.

Q: And the “residual percentage in human S9 fraction” value ([4]; human liver S9 fraction, after 90 min, 37° C.)?
A: The value was 76%.

Q: And the “residual percentage in rat plasma” value (Stability in rat plasma)?
A: Its value is 80%.

Q: And the “residual percentage in human plasma” value [5]?
A: Its value is 92%.

Q: Which IC50 (recombinant human HDAC6; read-out: HDAC6 IC50) does the source give for `Cn1c(Sc2c(F)cc(C(=O)NO)cc2F)nnc1-c1coc(CN2CCOCC2)c1` [comp. 203, 3,5-difluoro-4-[[4-methyl-5-[5-(morpholinomethyl)-3-furyl]-1,2,4-triazol-3-yl]sulfanyl]benzenecarbohydroxamic acid] here?
A: Its IC50 is 14 nM.

Q: And the IC50 [1]?
A: Its IC50 is 15200 nM.

Q: And the IC50 [2]?
A: The IC50 was over 10000 nM.

Q: What about the “residual percentage in rat S9 fraction” value [3] of the same compound?
A: The value was 58%.

Q: And the “residual percentage in human S9 fraction” value ([4]; human, 90 min, pH 7.4)?
A: The value was 74%.

Q: And the “residual percentage in rat plasma” value (Stability in rat plasma)?
A: Its value is 94%.

Q: And the “residual percentage in human plasma” value [5]?
A: Its value is 95%.

Q: What does the source list for `Cn1c(Sc2c(F)cc(C(=O)NO)cc2F)nnc1-c1ccc(CCN2CCCC2)nc1` [comp. 210, 3,5-difluoro-4-[[4-methyl-5-[6-(2-pyrrolidin-1-ylethyl)-3-pyridyl]-1,2,4-triazol-3-yl]sulfanyl]benzenecarbohydroxamic acid]?
A: IC50 (recombinant human HDAC6; read-out: HDAC6 IC50): 7 nM; IC50 [1]: 10400 nM; IC50 [2]: > 10000 nM; residual percentage in rat S9 fraction [3]: 71%; residual percentage in human S9 fraction ([4]; human, 90 min, pH 7.4): 80%; residual percentage in rat plasma (Stability in rat plasma): 84%; residual percentage in human plasma [5]: 79%

Q: For `CC1(C)CC(=O)c2c(S(C)(=O)=O)sc(-c3nnn(Cc4ccc(C(=O)NO)cc4)n3)c2C1` [compound 74], which IC50 (recombinant human HDAC6; read-out: HDAC6 IC50) is on record?
A: Its IC50 is 17 nM.

Q: What about the IC50 [1] of the same compound?
A: Its IC50 is 2280 nM.

Q: What about the IC50 [2] of the same compound?
A: Its IC50 is 2000 nM.

Q: And the “residual percentage in rat S9 fraction” value [3]?
A: Its value is 61%.

Q: What about the “residual percentage in human S9 fraction” value ([4]; human, 90 min, pH 7.4) of the same compound?
A: The value was 84%.

Q: And the “residual percentage in rat plasma” value (Stability in rat plasma)?
A: Its value is 94%.

Q: What about the “residual percentage in human plasma” value [5] of the same compound?
A: The value was 100%.

Q: For `CN(C)S(=O)(=O)c1ccc(F)c(-c2nnc(Sc3ccc(C(=O)NO)cc3)n2C)c1` [compound 76], which IC50 (recombinant human HDAC6; read-out: HDAC6 IC50) is on record?
A: The IC50 was 28 nM.

Q: And the IC50 [1]?
A: Its IC50 is over 10000 nM.

Q: And the IC50 [2]?
A: Its IC50 is over 10000 nM.

Q: And the “residual percentage in rat S9 fraction” value [3]?
A: The value was 76%.

Q: And the “residual percentage in human S9 fraction” value ([4]; human, 90 min, pH 7.4)?
A: The value was 77%.

Q: What about the “residual percentage in rat plasma” value (Stability in rat plasma) of the same compound?
A: Its value is 98%.

Q: And the “residual percentage in human plasma” value [5]?
A: Its value is 96%.

Q: Which IC50 (recombinant human HDAC6; read-out: HDAC6 IC50) does the source give for `O=C(NO)c1ccc(Cc2noc(-c3ccccc3)n2)cc1` [compound 189, 4-[(5-phenyl-1,2,4-oxadiazol-3-yl)methyl]benzenecarbohydroxamic acid] here?
A: Its IC50 is 9 nM.

Q: And the IC50 [1]?
A: The IC50 was 291 nM.

Q: And the IC50 [2]?
A: Its IC50 is 1050 nM.

Q: What about the “residual percentage in rat S9 fraction” value [3] of the same compound?
A: The value was 5%.

Q: What about the “residual percentage in human S9 fraction” value ([4]; human, 90 min, pH 7.4) of the same compound?
A: The value was 72%.

Q: What about the “residual percentage in rat plasma” value (Stability in rat plasma) of the same compound?
A: The value was 78%.

Q: And the “residual percentage in human plasma” value [5]?
A: Its value is 100%.

Q: With `O=C(NO)c1ccc(Cc2nnc(-c3ccccc3)s2)cc1` [compound 190, 4-[(5-phenyl-1,3,4-thiadiazol-2-yl)methyl]benzenecarbohydroxamic acid] as the compound, how does the IC50 (recombinant human HDAC6; read-out: HDAC6 IC50) read?
A: The IC50 was 3 nM.

Q: And the IC50 [1]?
A: The IC50 was 333 nM.

Q: What about the IC50 [2] of the same compound?
A: The IC50 was 983 nM.

Q: And the “residual percentage in rat S9 fraction” value [3]?
A: Its value is 9%.

Q: What about the “residual percentage in human S9 fraction” value ([4]; human, 90 min, pH 7.4) of the same compound?
A: Its value is 64%.

Q: What about the “residual percentage in rat plasma” value (Stability in rat plasma) of the same compound?
A: Its value is 73%.

Q: And the “residual percentage in human plasma” value [5]?
A: Its value is 99%.
